Values of other authors as cited in patent US20120259154A1, “In Vivo Immunomagnetic Hyperthermia Platform for Any Cell or Virus Having a Target Surface Receptor” (IVDiagnostics, Inc., priority 2011, published 2012).

Settings: following intravenous administration

folate-FITC
t1/2 (clearance from the blood): 3.5 min
